Reference: US9458202B2, “Peptidomimetic macrocycles with improved properties” (Aileron Therapeutics, Inc., priority 2008, dated 2016)
Where a SMILES comes first, the peptide text is derived from it. Bridges are numbered along the chain shown (N, C = ends). [ ]: non-standard residue; d: D form. S5 = C=CCCC[C@](C)(N)C(=O)O; Nle = CCCC[C@H](N)C(=O)O

What was measured:
circular dichroism = assay: circular dichroism; design: unit not given here; conditions: 20 mM phosphoric acid; pH 2.0; 5 °C; 0.05 mg/mL
Figure 2 = assay: Figure 2; design: AUCall: concentration or dose not given beside the values
Protocol: Table printed on a drawing sheet, Figure 2
Footnotes: 2 mg/mL iv bolus in Sprague-Dawley rats (10 mg/kg) / * 0.6 mg/mL iv bolus in Sprague-Dawley rats (3 mg/kg)
The patent's description of the figure: FIG. 2 lists the in vivo half-lives of peptidomimetic macrocycles of the invention. Half-lives were measured in Sprague Dawley rats after one intravenous bolus injection at 0.6 mg/mL or 2 mg/mL of each unlabeled peptidomimetic macrocycle at a 3 mg/kg or 10 mg/kg dose, respectively. Three animals were used per compound and concentrations were determined by mass-spectrometric analysis of blood levels (plasma).
First reader's note: An asterisk before the peptide name marks dosing at 3 mg/kg (0.6 mg/mL) instead of 10 mg/kg (2 mg/mL).

[1] = Sprague-Dawley, rat, plasma, iv

SMILES: CCCC[C@H](NC(=O)[C@]1(C)CCCC=CCCC[C@](C)(NC(=O)[C@H](C)NC(=O)[C@H](CC(C)C)NC(=O)[C@H](Cc2c[nH]cn2)NC(=O)[C@H](CCCNC(=N)N)NC(=O)[C@H](C)NC(=O)[C@@H](NC(=O)[C@H](CC(N)=O)NC(=O)[C@H](CCCNC(=N)N)NC(=O)[C@@H](NC(=O)[C@@H](NC(=O)[C@H](CC(=O)O)NC(C)=O)[C@@H](C)CC)[C@@H](C)CC)[C@@H](C)CC)C(=O)N[C@@H](C(C)C)C(=O)NCC(=O)N[C@@H](CC(=O)O)C(=O)N1)C(=O)N[C@@H](CC(=O)O)C(=O)N[C@@H](CCCNC(=N)N)C(=O)N[C@@H](CO)C(=O)N[C@H](C(N)=O)[C@@H](C)CC [SP1] (Ac-DIIRNIARHLA[S5]VGD[S5][Nle]DRSI-NH2; staple 12-16)
- helicity (circular dichroism): -8150
- AUCall (Figure 2): 268.275 µg·h/mL
- Cl_obs (Figure 2): 0.737 mL/min/kg
- C0 (Figure 2; [1]): 154 µg/mL

SMILES: CCCC[C@H](NC(=O)[C@@]1(C)CCCC=CCCCC2(CCCC=CCCC[C@](C)(NC(=O)[C@H](C)NC(=O)[C@@H](NC(=O)[C@H](CC(N)=O)NC(=O)[C@H](CCCNC(=N)N)NC(=O)[C@@H](NC(=O)[C@@H](NC(=O)[C@H](CC(=O)O)NC(C)=O)[C@@H](C)CC)[C@@H](C)CC)[C@@H](C)CC)C(=O)N[C@@H](Cc3c[nH]cn3)C(=O)N[C@@H](CC(C)C)C(=O)N[C@@H](C)C(=O)N2)C(=O)N[C@@H](C(C)C)C(=O)NCC(=O)N[C@@H](CC(=O)O)C(=O)N1)C(=O)N[C@@H](CC(=O)O)C(=O)N[C@@H](CCCNC(=N)N)C(=O)N[C@@H](CO)C(=O)N[C@H](C(N)=O)[C@@H](C)CC (stereo partly shown) [*SP14]
- helicity (circular dichroism): -5840
- AUCall (Figure 2): 74.344 µg·h/mL
- Cl_obs (Figure 2): 0.727 mL/min/kg
- C0 (Figure 2; [1]): 7.2 µg/mL
- half-life (Figure 2; [1]): 6.7 h
- MRT (Figure 2; Sprague-Dawley, rat, plasma, iv, read-out: MRTinf_obs): 8.7 h
